Assays:
Format in all cases: functional
[1] = test system: SW-620; assay: Growth inhibitory activity against colon cancer SW-620 cell line was determined; conditions: Homo sapiens
[2] = test system: HOP-92; assay: Growth inhibitory activity against non small cell lung cancer HOP-92 cell line was determined; conditions: Homo sapiens
[3] = test system: MCF7; assay: Growth inhibitory activity against Breast cancer MCF-7 cell line was determined; conditions: Homo sapiens
[4] = test system: HCT-15; assay: Growth inhibitory activity against colon cancer HCT-15 cell line was determined; conditions: Homo sapiens
[5] = test system: HCC 2998; assay: Growth inhibitory activity against colon cancer HCC2998 cell line was determined; conditions: Homo sapiens
[6] = test system: U-251; assay: Growth inhibitory activity against CNS cancer U251 cell line was determined; conditions: Homo sapiens
[7] = test system: OVCAR-4; assay: Growth inhibitory activity against Ovarian cancer OVCAR-4 cell line was determined; conditions: Homo sapiens
[8] = test system: NCI-H460; assay: Growth inhibitory activity against non small cell lung cancer H460 cell line was determined; conditions: Homo sapiens
[9] = test system: DU-145; assay: Growth inhibitory activity against Prostate cancer DU-145 cell line was determined; conditions: Homo sapiens
[10] = test system: A498; assay: Growth inhibitory activity against Renal cancer A498 cell line was determined; conditions: Homo sapiens
[11] = test system: SK-OV-3; assay: Growth inhibitory activity against Ovarian cancer SK-OV-3 cell line was determined; conditions: Homo sapiens
[12] = test system: NCI-H23; assay: Growth inhibitory activity against non small cell lung cancer NCI-H23 cell line was determined; conditions: Homo sapiens
[13] = test system: OVCAR-3; assay: Growth inhibitory activity against Ovarian cancer OVCAR-3 cell line was determined; conditions: Homo sapiens
[14] = test system: Hs-578T; assay: Growth inhibitory activity against Breast cancer HS 578T cell line was determined; conditions: Homo sapiens
[15] = test system: KM12; assay: Growth inhibitory activity against colon cancer KM12 cell line was determined; conditions: Homo sapiens
[16] = test system: K562; assay: Growth inhibitory activity against Leukemia K-562 cell line was determined; conditions: Homo sapiens
[17] = test system: HCT-116; assay: Growth inhibitory activity against colon cancer HCT116 cell line was determined; conditions: Homo sapiens
[18] = test system: SR; assay: Growth inhibitory activity against Leukemia SR cell line was determined; conditions: Homo sapiens
[19] = test system: MCF7; assay: In vitro percent of proliferation of vehicle treated MCF-7 human breast cell lines was determined at 0.0010 M concentration
[20] = test system: A549; assay: Growth inhibitory activity against non small cell lung cancer A549/ATCC cells; conditions: Homo sapiens
[21] = test system: M14; assay: Growth inhibitory activity against Melanoma M14 cell line was determined; conditions: Homo sapiens
[22] = test system: SN12C; assay: Growth inhibitory activity against Renal cancer SN12C cell line was determined; conditions: Homo sapiens
[23] = test system: NCI-H522; assay: Growth inhibitory activity against non small cell lung cancer H522 cell line was determined; conditions: Homo sapiens
[24] = test system: TK-10; assay: Growth inhibitory activity against Renal cancer TK-10 cell line was determined; conditions: Homo sapiens
[25] = test system: MOLT-4; assay: Growth inhibitory activity against Leukemia MOLT-4 cell line was determined; conditions: Homo sapiens
[26] = test system: HT-29; assay: Growth inhibitory activity against colon cancer HT-29 cell line was determined; conditions: Homo sapiens
[27] = test system: SF-268; assay: In vitro percent of proliferation of vehicle treated SF-268 human CNS cell lines was determined at 0.0010 M concentration
[28] = test system: SF-539; assay: Growth inhibitory activity against CNS cancer SF-539 cell line was determined; conditions: Homo sapiens
[29] = test system: SNB-19; assay: Growth inhibitory activity against CNS cancer SNB-19 cell line was determined; conditions: Homo sapiens
[30] = test system: NCI-H226; assay: Growth inhibitory activity against non small cell lung cancer NCI-H226 cell line was determined; conditions: Homo sapiens
[31] = test system: SF-268; assay: Growth inhibitory activity against CNS cancer SF-268 cell line was determined; conditions: Homo sapiens
[32] = test system: ACHN; assay: Growth inhibitory activity against Renal cancer ACHN cell line was determined; conditions: Homo sapiens
[33] = test system: NCI-H322M; assay: Growth inhibitory activity against non small cell lung cancer NCI-H322M cell line was determined; conditions: Homo sapiens
[34] = test system: LOX IMVI; assay: Growth inhibitory activity against Melanoma LOX IMVI cell line; conditions: Homo sapiens
[35] = test system: RPMI-8226; assay: Growth inhibitory activity against Leukemia RPMI-8226 cell line was determined; conditions: Homo sapiens
[36] = test system: HL-60; assay: Growth inhibitory activity against Leukemia HL-60(TB) cell line was determined; conditions: Homo sapiens
[37] = test system: EKVX; assay: Growth inhibitory activity against non small cell lung cancer EKVX cell line was determined; conditions: Homo sapiens
[38] = test system: MDA-MB-231; assay: Growth inhibitory activity against Breast cancer MDA-MB-231/ATCC cell line was determined; conditions: Homo sapiens
[39] = test system: HOP-62; assay: Growth inhibitory activity against non small cell lung cancer HOP-62 cell line was determined; conditions: Homo sapiens
[40] = test system: 786-0; assay: Growth inhibitory activity against Renal cancer 786-0 cell line was determined; conditions: Homo sapiens
[41] = test system: NCI/ADR-RES; assay: Growth inhibitory activity against Breast cancer NCI/ADR-RES cell line was determined; conditions: Homo sapiens
[42] = test system: SNB-75; assay: Growth inhibitory activity against CNS cancer SNB-75 cell line was determined; conditions: Homo sapiens
[43] = test system: CCRF-CEM; assay: Growth inhibitory activity against Leukemia CCRF-CEM cell line was determined; conditions: Homo sapiens
[44] = test system: SK-MEL-5; assay: Growth inhibitory activity against Melanoma SK-MEL-5 cell line was determined; conditions: Homo sapiens
[45] = test system: BT-549; assay: Growth inhibitory activity against Breast cancer BT-549 cell line was determined; conditions: Homo sapiens
[46] = test system: SF-295; assay: Growth inhibitory activity against CNS cancer SF-295 cell line was determined; conditions: Homo sapiens
[47] = test system: OVCAR-8; assay: Growth inhibitory activity against Ovarian cancer OVCAR-8 cell line was determined; conditions: Homo sapiens
[48] = test system: NCI-H460; assay: In vitro percent of proliferation of vehicle treated NCI-H460 human lung cell lines was determined at 0.0010 M concentration
[49] = test system: CAKI-1; assay: Growth inhibitory activity against Renal cancer CAKI-1 cell line […]; conditions: Homo sapiens
[50] = test system: UACC-62; assay: Growth inhibitory activity against Melanoma UACC-62 cell line was determined; conditions: Homo sapiens
[51] = test system: OVCAR-5; assay: Growth inhibitory activity against Ovarian cancer OVCAR-5 cell line was determined; conditions: Homo sapiens
[52] = test system: PC-3; assay: Growth inhibitory activity against Prostate cancer PC-3 cell line was determined; conditions: Homo sapiens
[53] = test system: MDA-MB-435; assay: Growth inhibitory activity against Breast cancer MDA-MB-435 cell line was determined; conditions: Homo sapiens
[54] = test system: SK-MEL-28; assay: Growth inhibitory activity against Melanoma SK-MEL-28 cell line was determined; conditions: Homo sapiens
[55] = test system: COLO 205; assay: Growth inhibitory activity against colon cancer COLO 205 cell line was determined; conditions: Homo sapiens
[56] = test system: RXF 393; assay: Growth inhibitory activity against Renal cancer RXF 393 cell line was determined; conditions: Homo sapiens
[57] = test system: UACC-257; assay: Growth inhibitory activity against Melanoma UACC-257 cell line was determined; conditions: Homo sapiens
[58] = test system: CAKI-1; assay: Growth inhibitory activity against Renal cancer CAKI-1 cell line was determined; conditions: Homo sapiens

O=C(Oc1ccccc1Cl)c1ccccc1Nc1ccnc(C(F)(F)F)c1
GI50 [1]: 0.36 µM
GI50 [2]: 0.02 µM
GI50 [3]: 0.28 µM
GI50 [4]: 0.22 µM
GI50 [5]: 2.2 µM
GI50 [6]: 0.27 µM
GI50 [7]: 0.26 µM
GI50 [8]: 0.66 µM
GI50 [9]: 4.3 µM
GI50 [10]: 3.9 µM
GI50 [11]: 8 µM
GI50 [12]: 0.25 µM
GI50 [13]: 0.22 µM
GI50 [14]: 0.32 µM
GI50 [15]: 0.33 µM
GI50 [16]: 0.05 µM
GI50 [17]: 1.8 µM
GI50 [18]: 0.03 µM
Proliferation [19]: 6%
GI50 [20]: 0.73 µM
GI50 [21]: 0.03 µM
GI50 [22]: 0.33 µM
GI50 [23]: 0.51 µM
GI50 [24]: 0.65 µM
GI50 [25]: 0.02 µM
GI50 [26]: 0.39 µM
Proliferation [27]: 17%
GI50 [28]: 0.58 µM
GI50 [29]: 7.4 µM
GI50 [30]: 0.29 µM
GI50 [31]: 0.22 µM
GI50 [32]: 0.28 µM
GI50 [33]: 4.8 µM
GI50 [34]: 0.02 µM
GI50 [35]: 0.24 µM
GI50 [36]: 0.47 µM
GI50 [37]: 8.6 µM
GI50 [38]: 0.32 µM
GI50 [39]: 2.7 µM
GI50 [40]: 0.25 µM
GI50 [41]: 0.32 µM
GI50 [42]: 0.68 µM
GI50 [43]: 0.03 µM
GI50 [44]: 0.26 µM
GI50 [45]: 0.34 µM
GI50 [46]: 0.24 µM
GI50 [47]: 0.24 µM
Proliferation [48]: 3%
GI50 [49]: 0.29 µM
GI50 [50]: 0.31 µM
GI50 [51]: 0.46 µM
GI50 [52]: 0.3 µM
GI50 [53]: 0.13 µM

CCOC(=O)CNC(=O)c1ccccc1Nc1ccnc(C(F)(F)F)c1
GI50 [1]: 20 µM
GI50 [2]: 0.05 µM
GI50 [3]: 25 µM
GI50 [4]: 29 µM
GI50 [5]: 71 µM
GI50 [6]: 18 µM
GI50 [7]: 35 µM
GI50 [8]: 20 µM
GI50 [9]: 27 µM
GI50 [10]: 64 µM
GI50 [54]: 23 µM
GI50 [11]: 29 µM
GI50 [12]: 22 µM
GI50 [13]: 24 µM
GI50 [14]: 46 µM
GI50 [15]: 27 µM
GI50 [55]: 19 µM
GI50 [16]: 18 µM
GI50 [17]: 21 µM
GI50 [18]: 17 µM
Proliferation [19]: 60%
GI50 [20]: 29 µM
GI50 [21]: 25 µM
GI50 [22]: 24 µM
GI50 [23]: 22 µM
GI50 [24]: 37 µM
GI50 [25]: 16 µM
GI50 [26]: 29 µM
Proliferation [27]: 59%
GI50 [28]: 28 µM
GI50 [29]: 30 µM
GI50 [30]: 100 µM
GI50 [31]: 20 µM
GI50 [32]: 34 µM
GI50 [33]: 32 µM
GI50 [34]: 17 µM
GI50 [35]: 11 µM
GI50 [36]: 33 µM
GI50 [37]: 31 µM
GI50 [38]: 24 µM
GI50 [39]: 21 µM
GI50 [40]: 29 µM
GI50 [41]: 51 µM
GI50 [56]: 19 µM
GI50 [57]: 69 µM
GI50 [43]: 2.2 µM
GI50 [44]: 10 µM
GI50 [45]: 36 µM
GI50 [46]: 71 µM
GI50 [47]: 26 µM
Proliferation [48]: 19%
GI50 [50]: 17 µM
GI50 [58]: 16 µM
GI50 [51]: 26 µM
GI50 [52]: 22 µM
GI50 [53]: 39 µM

O=C(Oc1cccnc1)c1ccccc1Nc1ccnc(C(F)(F)F)c1
GI50 [1]: 0.06 µM
GI50 [2]: 0.48 µM
GI50 [3]: 0.16 µM
GI50 [4]: 0.29 µM
GI50 [5]: 0.36 µM
GI50 [6]: 0.52 µM
GI50 [7]: 0.46 µM
GI50 [8]: 0.34 µM
GI50 [9]: 0.22 µM
GI50 [10]: 0.52 µM
GI50 [54]: 0.66 µM
GI50 [11]: 0.25 µM
GI50 [12]: 0.06 µM
GI50 [13]: 0.14 µM
GI50 [14]: 0.57 µM
GI50 [15]: 0.31 µM
GI50 [55]: 0.14 µM
GI50 [16]: 0.04 µM
GI50 [17]: 0.03 µM
GI50 [18]: 0.01 µM
Proliferation [19]: 62%
GI50 [20]: 0.72 µM
GI50 [21]: 0.03 µM
GI50 [22]: 0.41 µM
GI50 [23]: 0.41 µM
GI50 [24]: 0.27 µM
GI50 [25]: 0.03 µM
GI50 [26]: 0.05 µM
Proliferation [27]: 75%
GI50 [28]: 0.01 µM
GI50 [29]: 0.33 µM
GI50 [30]: 0.51 µM
GI50 [31]: 0.06 µM
GI50 [32]: 0.26 µM
GI50 [33]: 2.9 µM
GI50 [34]: 0.05 µM
GI50 [35]: 0.05 µM
GI50 [36]: 44 µM
GI50 [37]: 0.39 µM
GI50 [38]: 0.39 µM
GI50 [39]: 0.01 µM
GI50 [40]: 0.27 µM
GI50 [41]: 0.08 µM
GI50 [56]: 0.34 µM
GI50 [57]: 55 µM
GI50 [43]: 0.03 µM
GI50 [44]: 0.17 µM
GI50 [45]: 0.01 µM
GI50 [46]: 0.31 µM
GI50 [47]: 0.69 µM
Proliferation [48]: 22%
GI50 [50]: 0.35 µM
GI50 [58]: 0.05 µM
GI50 [51]: 0.49 µM
GI50 [52]: 0.42 µM
GI50 [53]: 0.06 µM

Source: ChEMBL document CHEMBL1138648, “Synthesis of new N-(2-(trifluoromethyl)pyridin-4-yl)anthranilic acid derivatives and their evaluation as anticancer agents” (2004)
